Experimental data as given in patent US12077503B2, “Substituted cyclic amides and their use as herbicides” (FMC CORPORATION, priority 2015, dated 2024).
Where two headings read alike, the source gives them in different places.

Key:
Type in all cases: in vivo
[1] = tested on: barnyardgrass (Echinochloa crus-galli); assay: Test A preemergence; details: Echinochloa crus-galli, pre-emergence, 240 h; for pest or weed control at 125 g/ha: 125 g ai/ha; for pest or weed control at 500 g/ha: 500 g ai/ha
Summary of the method: (§1)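 Seeded soil received test chemicals as a preemergence directed spray, and seedlings at one to two leaves, 2–10 cm tall, received them postemergence, in a non-phytotoxic, surfactant-containing solvent mixture. Pots were held in a greenhouse for approximately 10 d, then rated for injury from 0, no effect, to 100, complete control.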

[2] = tested on: Galium (catchweed bedstraw, Galium aparine); assay: Test A postemergence; details: Galium, post-emergence, 240 h, postemergence; for pest or weed control at 125 g/ha: 125 g ai/ha
Summary of the method: as §1

Kochia (Kochia scoparia) = assay: Test A postemergence; details: Bassia scoparia, post-emergence, 240 h, postemergence; for pest or weed control at 125 g/ha: 125 g ai/ha
Summary of the method: as §1

[3] = tested on: barnyardgrass (Echinochloa crus-galli); assay: Test A postemergence; details: Echinochloa crus-galli, post-emergence, 240 h, postemergence; for pest or weed control at 125 g/ha: 125 g ai/ha
Summary of the method: as §1

[4] = tested on: blackgrass (Alopecurus myosuroides); assay: Test A postemergence; details: Alopecurus myosuroides, post-emergence, 240 h, postemergence; for pest or weed control at 125 g/ha: 125 g ai/ha
Summary of the method: as §1

corn (Zea mays) = assay: Test A postemergence; details: Zea mays, post-emergence, 240 h, postemergence; for plant injury at 125 g/ha: 125 g ai/ha
Summary of the method: as §1

[5] = tested on: giant foxtail (Setaria faberii); assay: Test A postemergence; details: Setaria faberi, post-emergence, 240 h, postemergence; for pest or weed control at 125 g/ha: 125 g ai/ha
Summary of the method: as §1

[6] = tested on: pigweed (Amaranthus retroflexus); assay: Test A postemergence; details: Amaranthus retroflexus, post-emergence, 240 h, postemergence; for pest or weed control at 125 g/ha: 125 g ai/ha
Summary of the method: as §1

[7] = tested on: ragweed (common ragweed, Ambrosia elatior); assay: Test A postemergence; details: Ambrosia artemisiifolia, post-emergence, 240 h, postemergence; for pest or weed control at 125 g/ha: 125 g ai/ha
Summary of the method: as §1

[8] = tested on: ryegrass, Italian (Italian ryegrass, Lolium multiflorum); assay: Test A postemergence; details: Lolium multiflorum, post-emergence, 240 h, postemergence; for pest or weed control at 125 g/ha: 125 g ai/ha
Summary of the method: as §1

[9] = tested on: wheat (Triticum aestivum); assay: Test A postemergence; details: Triticum aestivum, post-emergence, 240 h, postemergence; for plant injury at 125 g/ha: 125 g ai/ha
Summary of the method: as §1

[10] = tested on: barnyardgrass (Echinochloa crus-galli); assay: Test B flooded paddy test; details: Echinochloa crus-galli, Flood, 250 g ai/ha, read-out: Barnyardgrass plant response rating
Summary of the method: (§2)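 2-leaf plants; pots flooded 3 cm over soil; cpd added to paddy water; depth held; greenhouse 13–15 d; visual rating vs controls, 0 = no effect, 100 = complete control.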

[11] = tested on: ducksalad (Heteranthera limosa); assay: Test B flooded paddy test; details: Heteranthera limosa, Flood, 250 g ai/ha, read-out: Ducksalad plant response rating
Summary of the method: as §2

rice (Oryra sativa) = assay: Test B flooded paddy test; details: Oryza sativa, Flood, 250 g ai/ha, read-out: Rice plant response rating
Summary of the method: as §2

[12] = tested on: sedge, umbrella (small-flower umbrella sedge, Cyperus difformis); assay: Test B flooded paddy test; details: Cyperus difformis, Flood, 250 g ai/ha, read-out: Sedge, Umbrella plant response rating
Summary of the method: as §2

[13] = preemergence, 0 to 100 scale where 0 is no effect and 100 is complete control, read-out: Barnyardgrass plant response rating
[14] = Preemergence, visual injury vs untreated controls after approximately 10 d, read-out: Barnyardgrass plant response rating (0 to 100 scale where 0 is no effect and 100 is complete control)
[15] = visual injury rating after approximately 10 d, read-out: Galium plant response rating (0 to 100 scale, 0 no effect, 100 complete control)
[16] = visual injury rating after approximately 10 d, read-out: Kochia plant response rating (0 to 100 scale, 0 no effect, 100 complete control)
[17] = visual injury rating after approximately 10 d, read-out: Barnyardgrass plant response rating (0 to 100 scale, 0 no effect, 100 complete control)
[18] = visual injury rating after approximately 10 d, read-out: Blackgrass plant response rating (0 to 100 scale, 0 no effect, 100 complete control)
[19] = visual injury rating after approximately 10 d, read-out: Corn plant response rating (0 to 100 scale, 0 no effect, 100 complete control)
[20] = visual injury rating after approximately 10 d, read-out: Foxtail, Giant plant response rating (0 to 100 scale, 0 no effect, 100 complete control)
[21] = visual injury rating after approximately 10 d, read-out: Pigweed plant response rating (0 to 100 scale, 0 no effect, 100 complete control)
[22] = visual injury rating after approximately 10 d, read-out: Ragweed plant response rating (0 to 100 scale, 0 no effect, 100 complete control)
[23] = visual injury rating after approximately 10 d, read-out: Ryegrass, Italian plant response rating (0 to 100 scale, 0 no effect, 100 complete control)
[24] = visual injury rating after approximately 10 d, read-out: Wheat plant response rating (0 to 100 scale, 0 no effect, 100 complete control)
[25] = scale of 0 to 100 where 0 is no effect and 100 is complete control
[26] = 0 to 100 scale where 0 is no effect and 100 is complete control

Molecule `COc1cc(C(F)(F)F)ccc1[C@H]1CN(C)C(=O)[C@@H]1C(=O)Nc1cccc(F)c1F` [Compound 859] has a pest or weed control at 125 g/ha [1, 13] of 90%, a pest or weed control at 500 g/ha [1, 14] of 90% and a pest or weed control at 125 g/ha [2, 15] of 50%. The pest or weed control at 125 g/ha (Kochia (Kochia scoparia); [16]) was 20%, the pest or weed control at 125 g/ha [3, 17] was 80% and the pest or weed control at 125 g/ha [4, 18] was 30%. The plant injury at 125 g/ha (corn (Zea mays); [19]) was 50%, the pest or weed control at 125 g/ha [5, 20] was 80% and the pest or weed control at 125 g/ha [6, 21] was 20%. The pest or weed control at 125 g/ha [7, 22] was 0%, the pest or weed control at 125 g/ha [8, 23] was 20% and the plant injury at 125 g/ha [9, 24] was 20%. It also gave a pest or weed control at 250 g/ha [10, 25] of 65%, a pest or weed control at 250 g/ha [11, 25] of 100% and a pest or weed control at 250 g/ha (rice (Oryra sativa); [25]) of 0%. It also gave a pest or weed control at 250 g/ha [12, 25] of 0%.
Molecule `CSc1ccccc1NC(=O)[C@H]1C(=O)N(C)C[C@@H]1c1ccc(C(F)(F)F)nc1` [Compound 1198] has a pest or weed control at 125 g/ha ([1]; preemergence, visual injury rating, 0 to 100 scale where 0 is no effect and 100 is complete control, approximately 10 d, read-out: Barnyardgrass plant response rating) of 70%, a pest or weed control at 500 g/ha [1, 13] of 100% and a pest or weed control at 125 g/ha ([2]; visual injury vs untreated controls after approx. 10 d, 0 = no effect, 100 = complete control, read-out: Galium plant response rating (0 to 100 scale)) of 40%. The pest or weed control at 500 g/ha ([2]; 500 g ai/ha, 0 to 100 scale, 0 is no effect, 100 is complete control, read-out: Galium plant response rating) was 50%, the pest or weed control at 125 g/ha (Kochia (Kochia scoparia); visual injury vs untreated controls after approx. 10 d, 0 = no effect, 100 = complete control, read-out: Kochia plant response rating (0 to 100 scale)) was 60% and the pest or weed control at 500 g/ha (Kochia (Kochia scoparia); 500 g ai/ha, 0 to 100 scale, 0 is no effect, 100 is complete control, read-out: Kochia plant response rating) was 60%. For the same molecule, the pest or weed control at 125 g/ha ([3]; visual injury vs untreated controls after approx. 10 d, 0 = no effect, 100 = complete control, read-out: Barnyardgrass plant response rating (0 to 100 scale)) was 80%, the pest or weed control at 500 g/ha ([3]; 500 g ai/ha, 0 to 100 scale, 0 is no effect, 100 is complete control, read-out: Barnyardgrass plant response rating) was 90% and the pest or weed control at 125 g/ha ([4]; visual injury vs untreated controls after approx. 10 d, 0 = no effect, 100 = complete control, read-out: Blackgrass plant response rating (0 to 100 scale)) was 20%. For the same molecule, the pest or weed control at 500 g/ha ([4]; 500 g ai/ha, 0 to 100 scale, 0 is no effect, 100 is complete control, read-out: Blackgrass plant response rating) was 60%, the plant injury at 125 g/ha (corn (Zea mays); visual injury vs untreated controls after approx. 10 d, 0 = no effect, 100 = complete control, read-out: Corn plant response rating (0 to 100 scale)) was 0% and the plant injury at 500 g/ha (corn (Zea mays); 500 g ai/ha, 0 to 100 scale, 0 is no effect, 100 is complete control, read-out: Corn plant response rating) was 20%. The pest or weed control at 125 g/ha ([5]; visual injury vs untreated controls after approx. 10 d, 0 = no effect, 100 = complete control, read-out: Foxtail, Giant plant response rating (0 to 100 scale)) was 80%, the pest or weed control at 500 g/ha ([5]; 500 g ai/ha, 0 to 100 scale, 0 is no effect, 100 is complete control, read-out: Foxtail, Giant plant response rating) was 90% and the pest or weed control at 125 g/ha ([6]; visual injury vs untreated controls after approx. 10 d, 0 = no effect, 100 = complete control, read-out: Pigweed plant response rating (0 to 100 scale)) was 40%. The pest or weed control at 500 g/ha ([6]; 500 g ai/ha, 0 to 100 scale, 0 is no effect, 100 is complete control, read-out: Pigweed plant response rating) was 70%, the pest or weed control at 125 g/ha ([7]; visual injury vs untreated controls after approx. 10 d, 0 = no effect, 100 = complete control, read-out: Ragweed plant response rating (0 to 100 scale)) was 0% and the pest or weed control at 500 g/ha ([7]; 500 g ai/ha, 0 to 100 scale, 0 is no effect, 100 is complete control, read-out: Ragweed plant response rating) was 30%. The pest or weed control at 125 g/ha ([8]; visual injury vs untreated controls after approx. 10 d, 0 = no effect, 100 = complete control, read-out: Ryegrass, Italian plant response rating (0 to 100 scale)) was 0%, the pest or weed control at 500 g/ha ([8]; 500 g ai/ha, 0 to 100 scale, 0 is no effect, 100 is complete control, read-out: Ryegrass, Italian plant response rating) was 30% and the plant injury at 125 g/ha ([9]; visual injury vs untreated controls after approx. 10 d, 0 = no effect, 100 = complete control, read-out: Wheat plant response rating (0 to 100 scale)) was 0%. For the same molecule, the plant injury at 500 g/ha ([9]; 500 g ai/ha, 0 to 100 scale, 0 is no effect, 100 is complete control, read-out: Wheat plant response rating) was 60%, the pest or weed control at 250 g/ha [10, 26] was 20% and the pest or weed control at 250 g/ha [11, 26] was 40%. For the same molecule, the pest or weed control at 250 g/ha (rice (Oryra sativa); [26]) was 0% and the pest or weed control at 250 g/ha [12, 26] was 30%.
Work on `CCOc1ccc([C@H]2CN(C)C(=O)[C@@H]2C(=O)Nc2ccc(F)cc2F)cc1` [Compound 905] yielded a pest or weed control at 125 g/ha [1, 13] of 70%, a pest or weed control at 500 g/ha [1, 14] of 90% and a pest or weed control at 125 g/ha [2, 15] of 0%. The pest or weed control at 125 g/ha (Kochia (Kochia scoparia); [16]) was 0%, the pest or weed control at 125 g/ha [3, 17] was 70% and the pest or weed control at 125 g/ha [4, 18] was 0%. For the same molecule, the plant injury at 125 g/ha (corn (Zea mays); [19]) was 0%, the pest or weed control at 125 g/ha [5, 20] was 60% and the pest or weed control at 125 g/ha [6, 21] was 0%. The pest or weed control at 125 g/ha [7, 22] was 0%, the pest or weed control at 125 g/ha [8, 23] was 0% and the plant injury at 125 g/ha [9, 24] was 0%. The pest or weed control at 250 g/ha [10, 25] was 0%, the pest or weed control at 250 g/ha [11, 25] was 0% and the pest or weed control at 250 g/ha (rice (Oryra sativa); [25]) was 0%. For the same molecule, the pest or weed control at 250 g/ha [12, 25] was 0%.
